Target: T1, human Kv3.2 (Homo sapiens, UniProt Q96PR1)
T1 construct: expressed in transfected cells
T1 sequence (Q96PR1 1-638): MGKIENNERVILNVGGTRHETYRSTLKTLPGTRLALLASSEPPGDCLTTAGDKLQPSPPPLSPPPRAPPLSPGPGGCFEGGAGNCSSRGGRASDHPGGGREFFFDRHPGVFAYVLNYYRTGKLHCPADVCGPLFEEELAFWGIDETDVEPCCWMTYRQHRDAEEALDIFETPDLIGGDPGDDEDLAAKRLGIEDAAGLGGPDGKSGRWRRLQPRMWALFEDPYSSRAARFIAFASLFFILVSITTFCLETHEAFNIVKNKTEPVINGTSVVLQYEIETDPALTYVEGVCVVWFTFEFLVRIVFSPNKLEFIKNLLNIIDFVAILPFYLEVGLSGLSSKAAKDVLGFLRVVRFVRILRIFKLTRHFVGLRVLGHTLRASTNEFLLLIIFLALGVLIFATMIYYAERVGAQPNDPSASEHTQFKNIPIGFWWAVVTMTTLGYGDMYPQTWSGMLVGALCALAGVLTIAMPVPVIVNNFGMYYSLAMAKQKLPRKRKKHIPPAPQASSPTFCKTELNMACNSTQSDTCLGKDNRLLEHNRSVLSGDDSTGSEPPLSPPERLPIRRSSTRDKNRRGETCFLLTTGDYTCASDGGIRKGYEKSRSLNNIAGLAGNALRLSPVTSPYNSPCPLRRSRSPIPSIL
Test: Manual patch clamp electrophysiology, HEK-293 cells stably expressing human Kv3.2
Format: cell-based
Details: for hKv3.2 ECΔ30% increase: concentration increasing current by 30% at the −10 mV step; for hKv3.2 ECΔ5 mV: concentration that shifts activation threshold by 5 mV
Description: Manual Patch Clamp Electrophysiological Evaluation, hKv3.1, hKv3.2, hKv3.3, hKv3.4:
HEK-293 cells stably expressing human Kv3.1b, Kv3.2, Kv3.3 or Kv3.4 were used for the experiments.
Kv3.1b, Kv3.2: Cells were cultured in MEM medium supplemented with 10% Fetal Bovine Serum, 1% Penicillin/Streptomycin, 2 mM glutamine and 0.6 mg/mL geneticin. Cells were grown to 80-90% confluency at 37° C. and 5% CO2 Kv3.3 or Kv3.4: Cells were cultured in DMEM medium supplemented with 10% Fetal Bovine Serum, 500 ug/mL Geneticidin and 1% Penicillin/Streptomycin. Cells were grown to 80-90% confluency at 37° C. and 5% CO2.
On the day of the experiment the cells were detached by TrypLE and resuspended in culture medium. Cells were centrifuged, media removed and the cells were resuspended in extracellular buffer containing (in mM): 130 Na-gluconate, 20 NaCl, 4 KCl, 1 MgCl2, 1.8 CaCl2, 10 HEPES and 5 glucose, pH 7.3 adjusted with NaOH, 310-320 mOsm
Patch-clamp recordings were performed using a manual patch-clamp system (Axon Multiclamp 700B, Digidata 1440, pCLAMP 10, Molecular Devices Corporation) with a fast perfusion system (RSC-160 Rapid solution Changer, BioLogic). Whole-cell recordings were carried out using an intracellular solution containing (in mM): 100 K-gluconate, 40 KCl, 10 HEPES, 1 EGTA, 1 MgCl2, pH 7.2 adjusted with KOH, 290-300 mOsm. Cell membrane potentials were held at −80 mV and current voltage-relationship was generated by voltage steps (50 ms duration) from −100 mV to +10 mV (in 10 mV increments) and then back to −100 mV for 50 ms, with inter-sweep interval of 3 s. The peak current amplitude of −10 mV was monitored until stable (<5% change) by using one step voltage protocol. One IV protocol was run as baseline, then compound perfusion was stared and peak current stability was monitored with single step protocol prior to the IV protocol. Single concentrations were measured per cell. Acceptable cells had seal resistance >500 MOhm, Access resistance <10 MOhm, and leak current <200 pA.
Data analysis was performed using Clampfit (V10.2) in combination with Microsoft Excel™ (Redmond, Wash., USA). Current voltage relationships were plotted from the peak current (baseline subtracted) at the individual voltage steps normalized to the vehicle addition at 10 mV. The voltage threshold for channel activation was defined as 5% activation of the peak current at 10 mV in presence of vehicle. […] The concentration needed to shift the threshold 5 mV was readout from this curve (ECΔ5 mV), as well as the ability to increase the peak current at the −10 mV step (EC30% increase). […]

hKv3.2 ECΔ30% increase | hKv3.2 ECΔ5 mV | Compound
>30 µM | 6.0 µM | Cc1ccc(S(=O)(=O)n2ccc(C(=O)NCc3ncco3)c2)cc1 [Compound 86, 1-(4-methylbenzene-1-sulfonyl)-N-[(1,3-oxazol-2-yl)methyl]-1H-pyrrole-3-carboxamide]
8.2 µM | 1.5 µM | Cc1cnc(CNC(=O)c2ccn(S(=O)(=O)c3ccc(F)cc3C)c2)cn1 [Compound 90, 1-(4-fluoro-2-methylbenzene-1-sulfonyl)-N-[(5-methylpyrazin-2-yl)methyl]-1H-pyrrole-3-carboxamide]
